Assay [1] deals with T1, MALT1 (Homo sapiens, UniProt Q9UDY8).
T1 construct: Avi-tagged FL MALT-1 (Pharmaron, stored at −70° C.); Avi tag
T1 sequence (Q9UDY8 1-824): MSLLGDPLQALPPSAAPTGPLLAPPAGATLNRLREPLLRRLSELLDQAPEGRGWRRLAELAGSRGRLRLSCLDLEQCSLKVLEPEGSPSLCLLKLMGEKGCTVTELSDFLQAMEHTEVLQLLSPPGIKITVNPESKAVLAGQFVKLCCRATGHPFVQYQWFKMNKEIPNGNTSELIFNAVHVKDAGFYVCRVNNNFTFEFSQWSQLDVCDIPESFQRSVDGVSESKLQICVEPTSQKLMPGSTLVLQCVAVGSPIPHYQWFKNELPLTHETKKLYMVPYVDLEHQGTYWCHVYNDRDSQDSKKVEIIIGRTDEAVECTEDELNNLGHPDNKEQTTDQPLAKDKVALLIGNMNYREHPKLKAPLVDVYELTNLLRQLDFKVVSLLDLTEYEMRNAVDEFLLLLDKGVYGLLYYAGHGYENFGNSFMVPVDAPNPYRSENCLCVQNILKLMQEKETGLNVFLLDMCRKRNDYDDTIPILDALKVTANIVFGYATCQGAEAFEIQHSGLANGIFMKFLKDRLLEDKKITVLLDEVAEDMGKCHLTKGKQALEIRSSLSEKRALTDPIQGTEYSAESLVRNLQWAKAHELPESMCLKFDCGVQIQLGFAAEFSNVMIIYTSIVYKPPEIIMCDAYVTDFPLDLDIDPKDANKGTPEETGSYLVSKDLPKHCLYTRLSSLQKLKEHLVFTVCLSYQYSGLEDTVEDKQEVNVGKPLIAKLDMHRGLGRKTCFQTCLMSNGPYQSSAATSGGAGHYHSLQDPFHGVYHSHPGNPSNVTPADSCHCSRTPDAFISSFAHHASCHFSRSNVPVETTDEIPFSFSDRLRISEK
The assay is described as follows: MALT-1 Fluorogenic Peptide Cleavage Assay (MALT1 inhibition assay). It counts as biochemical. The conditions noted are these: Avi-tagged FL MALT-1, Ac-LRSR-AMC peptide substrate, 30 min pre-incubation, 90 min reaction. A digest of the protocol: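 IC50 from sigmoidal fits of % inhibition, with fluorescence (ex 342, em 441 nm) from AMC released from the quenched LRSR peptide after 90 min at room temperature. Full-length Avi-tagged MALT1 saw compound for 30 min first; final DMSO 2%.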

The subject of assay [2] is NF-kB. The assay can be described thus: NF-kB reporter assay in Jurkat cells stimulated with aCD3/aCD28/PMA. Conditions: Homo sapiens, Jurkat, Jurkat cells, 1 hr compound incubation, aCD3/aCD28/PMA stimulation 4 hr, One-Glo readout; read-out: NF-kB Reporter Assay IC50. It counts as cell-based. In short, it runs like this: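 Stimulation used final aCD3 5 μg/mL, aCD28 5 μg/mL and PMA 0.03 μg/mL for 4 hr at 37° C, after 1 hr compound pretreatment of 25,000 serum-starved Jurkat cells per well. One-Glo luminescence gave IC50 values.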
On the technique in general: Reporter assays use an easily measured gene product as a stand-in for the process of interest.

The term IC50 denotes the midpoint of a concentration-inhibition curve. Take `CN1CCn2ncc(-c3ccc(S(=O)(=O)Nc4cccc5cnn(C)c45)cn3)c2C1` [Example I-314, 6-{5-methyl-4H,6H,7H-pyrazolo[1,5-a]pyrazin-3-yl}-N-(1-methylindazol-7-yl)pyridine-3-sulfonamide]: the IC50 in assay [1] is more than 2.5 µM; in assay [2], 1 to 2.5 µM.
For `COc1ccc2cnn(C)c2c1NS(=O)(=O)c1ccc(-c2cnn3c2CN(C)CC3)nc1` [Example I-315], in that order: more than 2.5 µM and more than 2.5 µM.
As for `[2H]C([2H])([2H])Oc1ccc2cnn(C([2H])([2H])[2H])c2c1NS(=O)(=O)c1ccc(-n2cc(C(F)(F)F)cn2)nc1` [Example I-316, N-(6-(methoxy-d3)-1-(methyl-d3)-1H-indazol-7-yl)-6-(4-(trifluoromethyl)-1H-pyrazol-1-yl)pyridine-3-sulfonamide], the IC50 in assay [1] and in assay [2] was less than 0.4 µM each time.

The values are drawn from patent US20240150365A1 (Hotspot Therapeutics, Inc., priority 2022, published 2024).
